According to US20190106460A1, “BINDING INHIBITORS OF THE BETA. TRANSDUCIN REPEAT-CONTAINING PROTEIN” (priority 2011, published 2019):
Where two headings read alike, the source gives them in different places. Starred links: 1 amine or outer side, 2 acyl side, 3 side chain; linkers in the order of their positions; H or OH if unused. Non-standard residues stand in square brackets, D forms with d. Residues, ends and D or L forms follow the SMILES beside them. *: point of attachment. Phe(4-NO2) = N[C@@H](Cc1ccc([N+](=O)[O-])cc1)C(=O)O; 2Naphthylsulfonyl = O=S(=O)(c1ccc2ccccc2c1)*; Phe(3-Cl) = N[C@@H](Cc1cccc(Cl)c1)C(=O)O; Phe(3-F) = N[C@@H](Cc1cccc(F)c1)C(=O)O; Phe(2-F) = N[C@@H](Cc1ccccc1F)C(=O)O; NMeE = CN[C@@H](CCC(=O)O)C(=O)O; pS = N[C@@H](COP(=O)(O)O)C(=O)O; X1 = CCCCOc1ccc(S(=O)(=O)*)cc1; Suc = O=C(CCC(=O)[*:2])[*:1]; Tos = Cc1ccc(S(=O)(=O)*)cc1

How the values were obtained:
[1] = target: Skp2 (Homo sapiens, UniProt Q13309); experiment: Selectivity assay vs other E3s: Skp2; assay type: biochemical; conditions: for inhibition at 100 µM: value in brackets, read-out: % Inhibition Skp2 @ (100 μM); for inhibition at 10 µM: read-out: % Inhibition Skp2 @ 10 μM
Chain of Skp2 (Q13309 whole entry, species assumed): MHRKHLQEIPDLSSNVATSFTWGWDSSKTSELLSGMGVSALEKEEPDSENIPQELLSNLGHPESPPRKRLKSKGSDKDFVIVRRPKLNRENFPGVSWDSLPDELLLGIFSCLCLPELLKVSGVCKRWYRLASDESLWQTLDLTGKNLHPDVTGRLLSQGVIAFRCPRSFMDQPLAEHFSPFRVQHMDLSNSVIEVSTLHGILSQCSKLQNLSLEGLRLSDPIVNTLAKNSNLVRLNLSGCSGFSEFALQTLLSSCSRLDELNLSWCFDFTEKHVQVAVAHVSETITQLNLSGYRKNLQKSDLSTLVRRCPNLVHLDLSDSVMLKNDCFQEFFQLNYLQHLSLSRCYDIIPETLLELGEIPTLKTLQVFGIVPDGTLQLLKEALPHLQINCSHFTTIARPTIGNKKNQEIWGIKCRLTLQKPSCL
Chain of Skp2 (P63208 whole entry partner, species assumed): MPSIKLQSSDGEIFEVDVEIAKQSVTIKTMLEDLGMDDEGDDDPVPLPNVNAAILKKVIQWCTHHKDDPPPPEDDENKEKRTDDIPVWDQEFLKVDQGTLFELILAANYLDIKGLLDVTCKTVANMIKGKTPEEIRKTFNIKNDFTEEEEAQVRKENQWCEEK
Chain of Skp2 (Q13616 whole entry partner, species assumed): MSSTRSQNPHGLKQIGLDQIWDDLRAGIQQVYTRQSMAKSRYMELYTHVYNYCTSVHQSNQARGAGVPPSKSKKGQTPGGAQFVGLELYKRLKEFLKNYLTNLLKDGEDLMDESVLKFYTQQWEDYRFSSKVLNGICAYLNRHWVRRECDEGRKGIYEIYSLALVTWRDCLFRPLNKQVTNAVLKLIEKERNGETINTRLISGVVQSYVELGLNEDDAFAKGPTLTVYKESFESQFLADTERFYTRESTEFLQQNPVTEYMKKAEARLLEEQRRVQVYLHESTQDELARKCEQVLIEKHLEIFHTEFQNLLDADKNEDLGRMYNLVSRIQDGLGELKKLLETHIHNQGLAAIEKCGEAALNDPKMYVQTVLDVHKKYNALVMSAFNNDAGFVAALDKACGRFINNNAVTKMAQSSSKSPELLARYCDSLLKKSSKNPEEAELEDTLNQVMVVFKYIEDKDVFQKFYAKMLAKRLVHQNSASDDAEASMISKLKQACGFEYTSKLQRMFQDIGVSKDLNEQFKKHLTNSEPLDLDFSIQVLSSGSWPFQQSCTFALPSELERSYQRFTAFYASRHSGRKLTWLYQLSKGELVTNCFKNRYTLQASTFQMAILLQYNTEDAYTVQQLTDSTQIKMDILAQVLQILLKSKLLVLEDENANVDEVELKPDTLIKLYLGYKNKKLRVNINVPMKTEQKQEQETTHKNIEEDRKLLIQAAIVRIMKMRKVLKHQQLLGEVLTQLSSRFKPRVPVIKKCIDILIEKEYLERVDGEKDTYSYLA
Chain of Skp2 (P62877 whole entry partner, species assumed): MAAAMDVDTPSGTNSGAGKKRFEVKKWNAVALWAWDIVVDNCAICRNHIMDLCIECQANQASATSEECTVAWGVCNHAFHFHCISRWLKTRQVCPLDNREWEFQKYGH
Protocol: (§1) βTrCP Ubiquitination Assay and Selectivity Assays
(§2) Master mixes were prepared in a 50 mM Herpes buffer at pH 7.5, in 75 mM NaCl and 1 mM DTT without Mg or ATP and peptides were added to a final concentration of 100 μM. Reactions were incubated at room temperature for 30 minutes and then Mg/ATP was added to the mix. Reactions were further incubated for an additional 60 minutes and then stopped by adding SDS gel loading buffer and boiled for 5 minutes. Reactions were run on SDS-PAGE (10%) and transferred to nitrocellulose membranes and probed with HRP-Streptavidin.
(§3) Candidate compounds were tested for inhibition of Fbw7 and Skp2 as described above.

[2] = target: FBW7/Skp1 (Homo sapiens, UniProt Q969H0); experiment: Selectivity assay vs other E3s: Fbw7; assay type: biochemical; conditions: for inhibition at 100 µM: value in brackets, read-out: % Inhibition Fbw7 @ (100 μM); for inhibition at 10 µM: read-out: % Inhibition Fbw7 @ 10 μM
Chain of FBW7/Skp1 (Q969H0 whole entry, species assumed): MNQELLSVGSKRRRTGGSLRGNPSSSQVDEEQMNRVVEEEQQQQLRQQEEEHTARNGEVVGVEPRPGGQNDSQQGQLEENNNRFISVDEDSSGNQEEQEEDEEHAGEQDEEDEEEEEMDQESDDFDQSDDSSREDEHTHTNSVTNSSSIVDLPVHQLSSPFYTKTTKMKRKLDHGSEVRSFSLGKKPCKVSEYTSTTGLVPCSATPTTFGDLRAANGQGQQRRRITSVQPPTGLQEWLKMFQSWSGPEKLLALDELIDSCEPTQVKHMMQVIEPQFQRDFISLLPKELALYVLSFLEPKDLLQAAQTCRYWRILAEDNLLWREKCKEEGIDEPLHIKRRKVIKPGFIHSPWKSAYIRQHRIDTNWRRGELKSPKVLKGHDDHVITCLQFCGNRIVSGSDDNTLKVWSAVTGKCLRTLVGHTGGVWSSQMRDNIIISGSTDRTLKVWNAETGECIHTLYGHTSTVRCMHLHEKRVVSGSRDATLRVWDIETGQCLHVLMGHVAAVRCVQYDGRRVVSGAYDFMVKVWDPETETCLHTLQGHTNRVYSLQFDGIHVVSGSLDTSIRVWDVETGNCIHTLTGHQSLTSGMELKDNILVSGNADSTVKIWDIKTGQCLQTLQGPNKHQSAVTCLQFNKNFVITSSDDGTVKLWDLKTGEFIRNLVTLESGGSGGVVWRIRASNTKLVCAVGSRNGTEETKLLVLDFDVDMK
Chain of FBW7/Skp1 (P63208 whole entry partner, species assumed): as the sequence (P63208 whole entry partner, species assumed) above
Chain of FBW7/Skp1 (Q13616 whole entry partner, species assumed): as the sequence (Q13616 whole entry partner, species assumed) above
Chain of FBW7/Skp1 (P62877 whole entry partner, species assumed): as the sequence (P62877 whole entry partner, species assumed) above
Protocol: as §1, §2
FBW7 selectivity assays were performed in the same manner except using FBW7/Skp1 as E3 component and cyclin E as the substrate. Blots were probed using anti-cyclin E antibody.
as §3

[3] = target: βTrCP/Skp1 (Homo sapiens, UniProt Q9Y297); experiment: Surface plasmon resonance (SPR), Biacore T200; assay type: binding; conditions: apparent KD averaged over both surfaces
Chain of βTrCP/Skp1 (P63208 whole entry partner, one chain of several): as the sequence (P63208 whole entry partner, species assumed) above
Protocol: Surface Plasmon Resonance (SPR)
Experiments were carried out using the Biacore T200 SPR detection system. This system exploits the phenomenon of surface plasmon resonance (SPR) to monitor interactions between molecules. The system involves the attachment of one interacting partner to a surface (an appropriate sensor chip) while the other interacting partner is passed over it in solution. The binding of molecules to the surface generates an SPR response (measured in response units (RU)) that is proportional to the mass and amount of the biomolecule (in this case βTrCP/Skp1) bound to the chip. The relative responses obtained are dependent on the concentration of the molecule binding. At RUmaximum, the attached protein's binding sites are saturated. Binding events can be followed in real time and a range of interaction characteristics can be determined including kinetics, specificity of interactions and the concentration of specific molecules in a sample.
As βTrCP was His tagged, an NTA sensor chip was used. This sensor chip has a dextran surface matrix with immobilized nitrilotriacetic acid (NTA) which provides a means of capturing polyHis-tagged proteins through Nickel chelation. It was hoped that addition of Ni^+ would orient the protein in a specific (and hopefully active) manner as it is covalently immobilised via amine coupling. Addition of EDC:NHS (N-ethyl-N′-(3-[…])-carbodiimide:N-hydroxysuccinimide) converts carboxyl groups on the dextran sensor chip surface to succinamide esters which readily form covalent bonds with primary amines. Each chip contains four flow cells (each a separate surface) which means that compounds/peptides can be passed over different forms of βTrCP and a reference surface simultaneously. If binding to βTrCP is occurring, responses should be the same (accounting for differences in density of surface etc) on each surface.
Two different βTrCP protein complexes were immobilised on to an NTA biacore sensor chip. One included the GSTSkp1 fusion (HisβTrCP/GSTSkp1) while the other was immobilised after GST Removal by Thrombin (HisβTrCP/Skp1). To ensure that the GST moiety is completely removed from Skp1, βTrCP/GSTSkp1 was incubated with thrombin ((10units/mg protein) for at least 16 hours at room temperature in 10mMHEPES 150mMNaCl pH7.4+2 mM CaCl2. Thrombin and GST were removed from βTrCP/Skp1 by buffer exchange through a 50 KDa MWCO vivaspin concentrator.
Protein Immobilisation Procedure for NTA Chip
Ni+ (500 μM NiCl) loaded on to surface at a flow rate of 5 μl/min for 60s. EDC/NHS (activates dextran carboxylates) loaded at a flow rate of 5 μl/min for 240s. Protein ([protein]=100 nM to 1 μM) loaded at a flow rate of 10 μl/min for 180s. Strip solution (350 μM EDTA/1M NaCl) added at flow rate of 10 μl/min for 30s (to chelate excess Ni+ and remove non-covalently bound protein e.g. protein oligomers). Quench solution (ethanolamine) at flow rate of 5 μl/min for 240s (to deactivate surface molecules on the chip that have not crosslinked protein). The immobilisation buffer used was 10 mM HEPES pH 7.4, 150 mM NaCl,
GST Capture Procedure (for Immobilisation Via GSTSkp1)
EDC:NHS was injected at 5 μl/min for 4 min to activate surface for amine coupling (this converts carboxyl groups on the surface of the chip to succinamide esters that react with primary amines)
Anti-GST (60 μg/ml). was loaded at 10 μl/min for 4 min resulting in an increase in response units of 6730 (Biacore manual states it should result in ˜7000)
Ethanolamine was injected at 5 μl/min for 5 min to deactivate remaining unreacted esters at surface (quenching).
Injection of a low concentration of purified GST (from kit) was injected for 3 mins at 5 μl/min before running a regeneration cycle with glycine pH2.0 that disrupts the antibody-GST interaction. […]

[4] = target: T1, βTrCP (Homo sapiens, UniProt Q9Y297); experiment: Biotin pull down assay with biotinylated IκB peptide; assay type: binding; conditions: for Biotin Pulldown Assay 10 μM: 10 μM compound; for Biotin Pulldown Assay 100 μM: 100 μM compound
T1 sequence (Q9Y297 1-605): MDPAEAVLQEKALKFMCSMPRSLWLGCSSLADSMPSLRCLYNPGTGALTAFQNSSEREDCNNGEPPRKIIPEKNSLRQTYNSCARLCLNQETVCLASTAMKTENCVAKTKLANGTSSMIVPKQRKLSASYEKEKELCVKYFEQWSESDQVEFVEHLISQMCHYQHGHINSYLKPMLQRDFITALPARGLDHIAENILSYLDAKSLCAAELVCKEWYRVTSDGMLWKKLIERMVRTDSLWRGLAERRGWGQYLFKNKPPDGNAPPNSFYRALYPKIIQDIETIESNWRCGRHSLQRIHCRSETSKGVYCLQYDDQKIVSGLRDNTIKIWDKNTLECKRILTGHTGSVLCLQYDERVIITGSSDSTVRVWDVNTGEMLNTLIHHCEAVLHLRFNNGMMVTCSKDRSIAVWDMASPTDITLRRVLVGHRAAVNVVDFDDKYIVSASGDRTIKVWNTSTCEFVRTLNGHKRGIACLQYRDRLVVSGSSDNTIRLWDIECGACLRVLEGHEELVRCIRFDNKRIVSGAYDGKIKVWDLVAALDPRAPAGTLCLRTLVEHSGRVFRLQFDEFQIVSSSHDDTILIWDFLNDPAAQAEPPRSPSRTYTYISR

[5] = target: β-TrCP1/Skp1 (Homo sapiens, UniProt Q9Y297); experiment: βTrCP ubiquitination assay (Ub assay); assay type: biochemical; conditions: for Ub Assay 10 μM: 10 μM compound; for Ub Assay 100 μM: 100 μM compound
Chain of β-TrCP1/Skp1 (P63208 2-163 partner limits assumed, one chain of several): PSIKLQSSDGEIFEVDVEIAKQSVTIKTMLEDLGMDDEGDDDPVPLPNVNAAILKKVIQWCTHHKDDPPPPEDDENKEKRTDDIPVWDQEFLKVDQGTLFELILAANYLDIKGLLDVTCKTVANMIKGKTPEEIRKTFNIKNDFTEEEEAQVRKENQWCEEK
Protocol: as §1
0.5 μM Peptide substrate (biotin)
as §2
Candidate compounds were tested in duplicate at both 10 and 100 μM against the E3 ligase cascades βTrCP(IκBα) and βTrCP(β-catenin). The E3 assays were carried out according to the component concentrations detailed in Table 9. In each case the E2 was HA,6His-UbcH3-(hu,FL), the E1 was 6His-UBE1-(hu,FL) and the ubiquitin (Sigma U6253) was biotinylated at a 5:1 ratio. Substrate phosphorylation was performed in the absence of compound; consequently any observed signal modulation should not reflect inhibition of the up-stream kinase reaction. All other steps (E1, E2 and substrate ubiquitination) were carried out in the presence of compound. The stopped reaction mix (10 μl) was added to an ECL plate loaded with anti c-Myc ( 1/500 Dilution, Millipore 05-724) and blocked with 5% BSA. Binding was allowed to proceed for 1 hour at RT before a wash step (3 40 μl PBST washes). Detection was achieved by binding SA-Ru TAG at 1 μg/ml (1 hour @ RT, 3 40 μl PBST washes) before reading on an MSD Sector Imager 6000.
Assays were performed as described above

[6] = target: βTrCP (Homo sapiens, UniProt Q9Y297); experiment: Fluorescence polarisation (FP) binding assay with fluorescein-tagged IκB peptide
Target sequence in this assay (P63208 whole entry partner, one chain of several): as the sequence (P63208 whole entry partner, species assumed) above

[7] = Table 11, with spread, read-out: FP IC50/μM
[8] = Tables 1, 3, 7, 8, 10 nM fluorescein-tagged IκB peptide, read-out: FP Assay IC50/μM

Row | Structure (SMILES) | inhibition at 100 µM [1] | inhibition at 10 µM [1] | inhibition at 100 µM [2] | inhibition at 10 µM [2] | Kd [3] | Biotin Pulldown Assay 10 μM [4] | Biotin Pulldown Assay 100 μM [4] | Ub Assay 10 μM [5] | Ub Assay 100 μM [5] | IC50 [6, 7] | IC50 [6, 8]
1 | CC[C@H](C)[C@H](NC(=O)CNC(=O)[C@H](COP(=O)(O)O)NC(=O)[C@@H](N)CC(=O)O)C(=O)N[C@@H](Cc1ccccc1)C(=O)N[C@@H](CCC(=O)O)C(N)=O [UBP001, DpSGIFE-NH2] (H-D[pS]GIFE-NH2) | 13% | 8% | 0% | 0% | 1.48 ± 0.286 µM | reduces/ | inhibits | reduces/ | inhibits | 1.24 ± 0.145 µM | –
2 | NC(=O)[C@H](CCC(=O)O)NC(=O)[C@H](Cc1ccc([N+](=O)[O-])cc1)NC(=O)[C@H](Cc1ccccc1F)NC(=O)CNC(=O)[C@H](CCC(=O)O)NC(=O)CCC(=O)O [UBP003, Suc-EGF(2F)F(4NO2)E-NH2] (Suc-EG[Phe(2-F)][Phe(4-NO2)]E-NH2) | 11% | 8% | 0% | 0% | 8 ± 0.26 µM | no effect/ | reduces | no effect/ | inhibits | 4.91 ± 0.702 µM | –
3 | NC(=O)[C@H](CCC(=O)O)NC(=O)[C@H](Cc1ccc([N+](=O)[O-])cc1)NC(=O)[C@H](Cc1cccc(F)c1)NC(=O)CNC(=O)[C@H](CCC(=O)O)NC(=O)CCC(=O)O [UBP004, Suc-EGF(3F)F(4NO2)E-NH2] (Suc-EG[Phe(3-F)][Phe(4-NO2)]E-NH2) | 3% | 0% | 2% | 0% | 4.53 ± 0.681 µM | reduces/ | inhibits | inhibits/ | inhibits | 0.522 ± 0.049 µM | –
4 | CCCCOc1ccc(S(=O)(=O)N[C@H](CC(=O)O)C(=O)N[C@@H](CCC(=O)O)C(=O)NCC(=O)N[C@@H](Cc2cccc(F)c2)C(=O)N[C@@H](Cc2c[nH]c3ccccc23)C(=O)N[C@@H](CCC(=O)O)C(N)=O)cc1 [UBP030, 4-(BuO)-PhSO2-dEGF(3F)WE-NH2] (X1-[dD]EG[Phe(3-F)]WE-NH2) | 13% | 0% | 12% | 7% | – | reduces/ | inhibits | reduces/ | inhibits | 0.056 ± 0.008 µM | 0.056 µM
5 | NC(=O)[C@H](CCC(=O)O)NC(=O)[C@H](Cc1c[nH]c2ccccc12)NC(=O)[C@H](Cc1cccc(F)c1)NC(=O)CNC(=O)[C@H](CCC(=O)O)NC(=O)[C@@H](CC(=O)O)NS(=O)(=O)c1ccc2ccccc2c1 [UBP031, 2-NaphthylSO2-dEGF(3F)WE-NH2] (2Naphthylsulfonyl-[dD]EG[Phe(3-F)]WE-NH2) | 17% | 0% | 11% | 10% | – | reduces/ | inhibits | reduces/ | inhibits | 0.044 ± 0.005 µM | –
6 | Cc1ccc(S(=O)(=O)N[C@H](CC(=O)O)C(=O)N[C@@H](CCC(=O)O)C(=O)NCC(=O)N[C@@H](Cc2cccc(Cl)c2)C(=O)N[C@@H](Cc2c[nH]c3ccccc23)C(=O)N(C)[C@@H](CCC(=O)O)C(N)=O)cc1 [UBP033, Ts-dEGF(3Cl)WE(Me)-NH2] (Tos-[dD]EG[Phe(3-Cl)]W[NMeE]-NH2) | 10% | 0% | 11% | 7% | – | – | inhibits | – | inhibits | – | 0.017 µM
7 | Cc1ccc(S(=O)(=O)N[C@H](CC(=O)O)C(=O)N[C@@H](CCC(=O)O)C(=O)NCC(=O)N[C@@H](Cc2cccc(Cl)c2)C(=O)N[C@@H](Cc2c[nH]c3ccccc23)C(=O)N[C@@H](CCC(=O)O)C(N)=O)cc1 [UBP034, Ts-dEGF(3Cl)WE-NH2] (Tos-[dD]EG[Phe(3-Cl)]WE-NH2) | 0% | 0% | 6% | 8% | – | s. reduces/ | inhibits | inhibits/ | inhibits | 0.01 ± 0.002 µM | –
